System: serum biomarkers (SAT biomarkers)
Assay: Phase 2: change (delta) in serum biomarker levels between week 0 and week 24 per dosage group (placebo, 3 g/day, 6 g/day), Human Discovery MAP250+ v2.0
Assay type: in vivo
Parameters: key to overall trend, Epithelial-Derived Neutrophil-Activating Protein 78 (ENA-78) / overall trend, Lactoylglutathione lyase (LGL) / overall trend, Latency-Associated Peptide of Transforming Growth Factor beta 1 (LAP TGF-b1) / overall trend, Macrophage Colony-Stimulating Factor 1 (M-CSF) / overall trend, Matrix Metalloproteinase-9, total (MMP-9, total) / overall trend, Myoglobin / overall trend, Neuronal Cell Adhesion Molecule (Nr-CAM) / overall trend, Plasminogen Activator Inhibitor 1 (PAI-1) / overall trend, Receptor tyrosine-protein kinase erbB-3 (ErbB3) / overall trend, Vascular Endothelial Growth Factor C (VEGF-C) / overall trend, Chromogranin-A (CgA): normalization: level moved toward normal level and the change in 6 g/day group was larger compared to placebo; stabilization: level might still move away from normal level but at a slower rate in 6 g/day group compared to placebo
Conditions: HIBM patients
Protocol: Forty-seven (47) HIBM patient serum samples collected at week 24 from phase 2 study were tested using the Human Discovery MAP250+ v2.0 quantitative immunoassay system developed by Myriad RBM. The results were compared to the serum samples of the same 47 HIBM patients collected at week 0 (baseline) which were conducted earlier with the same immunoassay system.
Patients were unblinded and the results were organized into the 3 assigned dosage groups, placebo (n=14), 3 g/day (n=17) and 6 g/day (n=14). The major focus of the analysis was 1) to assess changes (delta, Δ) in levels of analytes between baseline and week 24 in each dosage group, 2) whether the changes correlate to dosage levels.
Analytes were excluded from analysis if […] of the HIBM patient samples were below least detectable dose (LDD). Within each dosage group, individual values with >5× difference to the mean of the dosage group were considered as outliers and thus removed from analysis.
Upon treatment, levels of these analytes show an overall trend of either stabilization or normalization. […] For example, LAP TGF-b1 is an example of biomarker showing trend of normalization when the baseline level in HIBM patients is higher than normal controls, see FIG. 2. NCAM is another example of biomarker showing trend of normalization when the baseline level in HIBM patients is lower than normal controls, see FIG. 3.

CC(=O)N[C@H]1[C@H]([C@H](O)[C@H](O)CO)OC(O)(C(=O)O)C[C@@H]1O (stereo partly drawn) [Sialic Acid, 5-N-acetylneuraminic acid]
average Δweek 0-24 (3 g/day), Chromogranin-A (CgA) (3 g/day, week 0 to week 24): 64.00 ng/mL
average Δweek 0-24 (3 g/day), Epithelial-Derived Neutrophil-Activating Protein 78 (ENA-78) (3 g/day, week 0 to week 24): -0.26 ng/mL
average Δweek 0-24 (3 g/day), Lactoylglutathione lyase (LGL) (3 g/day, week 0 to week 24): 0.25 ng/mL
average Δweek 0-24 (3 g/day), Latency-Associated Peptide of Transforming Growth Factor beta 1 (LAP TGF-b1) (3 g/day, week 0 to week 24): -0.44 ng/mL
average Δweek 0-24 (3 g/day), Macrophage Colony-Stimulating Factor 1 (M-CSF) (3 g/day, week 0 to week 24): 0.10 ng/mL
average Δweek 0-24 (3 g/day), Matrix Metalloproteinase-9, total (MMP-9, total) (3 g/day, week 0 to week 24): 449.18 ng/mL
average Δweek 0-24 (3 g/day), Myoglobin (3 g/day, week 0 to week 24): -48.88 ng/mL
average Δweek 0-24 (3 g/day), Neuronal Cell Adhesion Molecule (Nr-CAM) (3 g/day, week 0 to week 24): -0.07 ng/mL
average Δweek 0-24 (3 g/day), Plasminogen Activator Inhibitor 1 (PAI-1) (3 g/day, week 0 to week 24): 0.82 ng/mL
average Δweek 0-24 (3 g/day), Receptor tyrosine-protein kinase erbB-3 (ErbB3) (3 g/day, week 0 to week 24): -0.28 ng/mL
average Δweek 0-24 (3 g/day), Vascular Endothelial Growth Factor C (VEGF-C) (3 g/day, week 0 to week 24): 1.35 ng/mL
overall trend, Chromogranin-A (CgA) (6 g/day vs placebo, week 24): stabilization
overall trend, Epithelial-Derived Neutrophil-Activating Protein 78 (ENA-78) (6 g/day vs placebo, week 24): normalization
overall trend, Lactoylglutathione lyase (LGL) (6 g/day vs placebo, week 24): normalization
overall trend, Latency-Associated Peptide of Transforming Growth Factor beta 1 (LAP TGF-b1) (6 g/day vs placebo, week 24): normalization
overall trend, Macrophage Colony-Stimulating Factor 1 (M-CSF) (6 g/day vs placebo, week 24): stabilization
overall trend, Matrix Metalloproteinase-9, total (MMP-9, total) (6 g/day vs placebo, week 24): stabilization
overall trend, Myoglobin (6 g/day vs placebo, week 24): normalization
overall trend, Neuronal Cell Adhesion Molecule (Nr-CAM) (6 g/day vs placebo, week 24): normalization
overall trend, Plasminogen Activator Inhibitor 1 (PAI-1) (6 g/day vs placebo, week 24): normalization
overall trend, Receptor tyrosine-protein kinase erbB-3 (ErbB3) (6 g/day vs placebo, week 24): stabilization
overall trend, Vascular Endothelial Growth Factor C (VEGF-C) (6 g/day vs placebo, week 24): stabilization
average Δweek 0-24 (6 g/day), Chromogranin-A (CgA) (6 g/day, week 0 to week 24): 5.83 ng/mL
average Δweek 0-24 (6 g/day), Epithelial-Derived Neutrophil-Activating Protein 78 (ENA-78) (6 g/day, week 0 to week 24): -0.42 ng/mL
average Δweek 0-24 (6 g/day), Lactoylglutathione lyase (LGL) (6 g/day, week 0 to week 24): -8.27 ng/mL
average Δweek 0-24 (6 g/day), Latency-Associated Peptide of Transforming Growth Factor beta 1 (LAP TGF-b1) (6 g/day, week 0 to week 24): -1.00 ng/mL
average Δweek 0-24 (6 g/day), Macrophage Colony-Stimulating Factor 1 (M-CSF) (6 g/day, week 0 to week 24): 0.02 ng/mL
average Δweek 0-24 (6 g/day), Matrix Metalloproteinase-9, total (MMP-9, total) (6 g/day, week 0 to week 24): 444.64 ng/mL
average Δweek 0-24 (6 g/day), Myoglobin (6 g/day, week 0 to week 24): -38.00 ng/mL
average Δweek 0-24 (6 g/day), Neuronal Cell Adhesion Molecule (Nr-CAM) (6 g/day, week 0 to week 24): 0.02 ng/mL
average Δweek 0-24 (6 g/day), Plasminogen Activator Inhibitor 1 (PAI-1) (6 g/day, week 0 to week 24): -0.36 ng/mL
average Δweek 0-24 (6 g/day), Receptor tyrosine-protein kinase erbB-3 (ErbB3) (6 g/day, week 0 to week 24): -0.16 ng/mL
average Δweek 0-24 (6 g/day), Vascular Endothelial Growth Factor C (VEGF-C) (6 g/day, week 0 to week 24): 6.43 ng/mL
